Laboratory results taken from patent publication US20210085640A1, “ACYLATED CATECHIN POLYPHENOLS AND METHODS OF THEIR USE FOR THE TREATMENT OF CANCER” (Flagship Pioneering Innovations V, Inc., priority 2018, published 2021).

Tests used:
Format in all cases: cell-based
[1] = tested on: Daudi lymphoma cancer cells; experiment: Cancer cell survival (CellTiter-Glo), Daudi; details: 72 h
Procedure: (§1) The cells were prepared as follows. Cells were harvested during logarithmic growth, counted, and adjusted to 4.44×10^4 cells/mL with culture media. 90 μL of suspended cells were added to wells of 96-well plates for a final cell count of 4×10^3 cells/well. The plates were incubated overnight at 37 C with 5% CO2 overnight.
(§2) The test compounds were assayed as follows. Compound solutions were mixed at 10× final concentrations in cell media: 1 μM-10 mM (fatty acids) or 100 nM-1 mM (all other compounds). […] of solution was added to each well of cells in triplicate for each concentration. Well plates were incubated for 72 h at 37 C with 5% CO2 and then assayed with CellTiter-Glo by adding 50 μL of CTG solution to each well. Cells were lysed by shaking on an orbital shaker for 5 min. Plates were incubated at room temperature for 20 min and then each well's luminescence was measured. The surviving percentage of cells was determined as:
(§3) Survival %=(LumTest article−LumMedium control)/(LumNone treated−LumMedium control)[…]
Activity was assessed at nine concentration levels for each compound and the 50% inhibition concentration (IC50) determined for each compound.

T24 bladder cancer cells = experiment: Cancer cell survival (CellTiter-Glo), T24; details: 72 h
Procedure: as §1, §2, §3
Efficacy was assessed at nine concentration levels for each compound and the 50% inhibition concentration (IC50) determined for each compound.

MCF7 breast cancer cells = experiment: Cancer cell survival (CellTiter-Glo), MCF7; details: 72 h
Procedure: as §1, §2, §3
(§4) Cytotoxicity was assessed at nine concentration levels for each compound and the 50% inhibition concentration (IC50) determined for each compound.

[2] = tested on: HCT 116 colorectal cancer cells; experiment: Cancer cell survival (CellTiter-Glo), HCT 116; details: HCT 116 cells, 72 h
Procedure: as §1, §2, §3, §4

A-431 skin cancer cells = experiment: Cancer cell survival (CellTiter-Glo), A-431; design: Cell survival at given concentration: unit not given here; details: A-431 cells, 72 h
Procedure: as §1, §2, §3, §4

AGS stomach cancer cells = experiment: Cancer cell survival (CellTiter-Glo), AGS; design: Cell survival at given concentration: unit not given here
Procedure: as §1, §2, §3, §4

[3] = tested on: PC-3 prostate cancer cells; experiment: Cancer cell survival (CellTiter-Glo), PC-3; details: PC-3 cells, 72 h
Procedure: as §1, §2, §3, §4

A549 lung cancer cells = experiment: Cancer cell survival (CellTiter-Glo), A549; details: 72 h
Procedure: as §1, §2, §3, §4

CC(O)CC(=O)O (stereo not drawn) [beta-hydroxybutyrate]
Cell survival at given concentration ([1]; 1 μM, Table 4.2): 1.01
Cell survival at given concentration ([1]; 3 μM, Table 4.2): 0.99
Cell survival at given concentration ([1]; 10 μM, Table 4.2): 0.98
Cell survival at given concentration ([1]; 32 μM, Table 4.2): 0.98
Cell survival at given concentration ([1]; 100 μM, Table 4.2): 1.02
Cell survival at given concentration ([1]; 317 μM): 0.99
Cell survival at given concentration ([1]; 1 mM): 0.99
Cell survival at given concentration ([1]; 3 mM): 0.96
Cell survival at given concentration ([1]; 10 mM): 0.91
Cell survival at given concentration (T24 bladder cancer cells; 1 μM, Table 3.2): 0.97
Cell survival at given concentration (T24 bladder cancer cells; 3 μM, Table 3.2): 1.00
Cell survival at given concentration (T24 bladder cancer cells; 10 μM, Table 3.2): 0.98
Cell survival at given concentration (T24 bladder cancer cells; 32 μM, Table 3.2): 0.95
Cell survival at given concentration (T24 bladder cancer cells; 100 μM, Table 3.2): 0.96
Cell survival at given concentration (T24 bladder cancer cells; 317 μM): 1.02
Cell survival at given concentration (T24 bladder cancer cells; 1 mM): 0.99
Cell survival at given concentration (T24 bladder cancer cells; 3 mM): 0.99
Cell survival at given concentration (T24 bladder cancer cells; 10 mM): 1.00
Cell survival at given concentration (MCF7 breast cancer cells; 1 μM, Table 5.2): 1.00
Cell survival at given concentration (MCF7 breast cancer cells; 3 μM, Table 5.2): 1.00
Cell survival at given concentration (MCF7 breast cancer cells; 10 μM, Table 5.2): 1.00
Cell survival at given concentration (MCF7 breast cancer cells; 32 μM, Table 5.2): 1.01
Cell survival at given concentration (MCF7 breast cancer cells; 100 μM, Table 5.2): 1.03
Cell survival at given concentration (MCF7 breast cancer cells; 317 μM): 1.01
Cell survival at given concentration (MCF7 breast cancer cells; 1 mM): 0.97
Cell survival at given concentration (MCF7 breast cancer cells; 3 mM): 0.92
Cell survival at given concentration (MCF7 breast cancer cells; 10 mM): 0.91
Cell survival at given concentration ([2]; 1 μM, Table 6.2): 0.98
Cell survival at given concentration ([2]; 3 μM, Table 6.2): 1.00
Cell survival at given concentration ([2]; 10 μM, Table 6.2): 0.99
Cell survival at given concentration ([2]; 32 μM, Table 6.2): 0.98
Cell survival at given concentration ([2]; 100 μM, Table 6.2): 1.00
Cell survival at given concentration ([2]; 317 μM): 1.03
Cell survival at given concentration ([2]; 1 mM): 1.01
Cell survival at given concentration ([2]; 3 mM): 0.96
Cell survival at given concentration ([2]; 10 mM): 0.90
Cell survival at given concentration (A-431 skin cancer cells; 1 μM, Table 9.2): 1.01
Cell survival at given concentration (A-431 skin cancer cells; 3 μM, Table 9.2): 1.02
Cell survival at given concentration (A-431 skin cancer cells; 10 μM, Table 9.2): 1.03
Cell survival at given concentration (A-431 skin cancer cells; 32 μM, Table 9.2): 1.03
Cell survival at given concentration (A-431 skin cancer cells; 100 μM, Table 9.2): 1.03
Cell survival at given concentration (A-431 skin cancer cells; 317 μM): 1.05
Cell survival at given concentration (A-431 skin cancer cells; 1 mM): 1.05
Cell survival at given concentration (A-431 skin cancer cells; 3 mM): 1.03
Cell survival at given concentration (A-431 skin cancer cells; 10 mM): 1.01
Cell survival at given concentration (AGS stomach cancer cells; 1 μM, Table 10.2): 1.01
Cell survival at given concentration (AGS stomach cancer cells; 3 μM, Table 10.2): 1.03
Cell survival at given concentration (AGS stomach cancer cells; 10 μM, Table 10.2): 1.01
Cell survival at given concentration (AGS stomach cancer cells; 32 μM, Table 10.2): 1.02
Cell survival at given concentration (AGS stomach cancer cells; 100 μM, Table 10.2): 1.04
Cell survival at given concentration (AGS stomach cancer cells; 317 μM): 1.03
Cell survival at given concentration (AGS stomach cancer cells; 1 mM): 1.04
Cell survival at given concentration (AGS stomach cancer cells; 3 mM): 1.03
Cell survival at given concentration (AGS stomach cancer cells; 10 mM): 1.00
Cell survival at given concentration ([3]; 1 μM, Table 8.2): 1.01
Cell survival at given concentration ([3]; 3 μM, Table 8.2): 1.00
Cell survival at given concentration ([3]; 10 μM, Table 8.2): 1.01
Cell survival at given concentration ([3]; 32 μM, Table 8.2): 1.03
Cell survival at given concentration ([3]; 100 μM, Table 8.2): 1.03
Cell survival at given concentration ([3]; 317 μM): 1.03
Cell survival at given concentration ([3]; 1 mM): 1.01
Cell survival at given concentration ([3]; 3 mM): 1.00
Cell survival at given concentration ([3]; 10 mM): 0.97
Cell survival at given concentration (A549 lung cancer cells; 1 μM, Table 7.2): 1.00
Cell survival at given concentration (A549 lung cancer cells; 3 μM, Table 7.2): 0.99
Cell survival at given concentration (A549 lung cancer cells; 10 μM, Table 7.2): 1.01
Cell survival at given concentration (A549 lung cancer cells; 32 μM, Table 7.2): 1.02
Cell survival at given concentration (A549 lung cancer cells; 100 μM, Table 7.2): 1.05
Cell survival at given concentration (A549 lung cancer cells; 317 μM): 1.01
Cell survival at given concentration (A549 lung cancer cells; 1 mM): 1.01
Cell survival at given concentration (A549 lung cancer cells; 3 mM): 1.01
Cell survival at given concentration (A549 lung cancer cells; 10 mM): 0.98
IC50 (A549 lung cancer cells; Table 7.2): > 10 mM
